Laboratory results published in the RepoRT retention time repository (doi:10.1038/s41597-019-0305-1).

Experiment: RP, Waters SunFire C18, 50 × 4.6 mm, 3.5 µm, 0.5 mL/min, estimated dead time 1.1 min; A: water + 0.1% formic acid; B: acetonitrile + 0.1% formic acid; gradient (min/%B) 0/5 7/100 8/100
Details: stereoisomer not certain

Structure (SMILES) | LC retention time [min]
COc1cc(O)c2c(c1)C(=O)c1cc(C=O)cc(O)c1C2=O | 6
COC(=O)C12Oc3ccc(-c4ccc5c(c4O)C(O)=C4C(=O)CC(C)C(O)C4(C(=O)OC)O5)c(O)c3C(O)=C1C(=O)CC(C)C2O (configuration not stated) | 6
Cc1cc(OC(=O)c2c(C)cc(OC(=O)c3c(C)cc(O)cc3O)cc2O)cc(O)c1C(=O)O | 6.53
COc1cc(C(=O)O)c2c(c1C)OC(=O)c1c(C)cc(O)c(C=O)c1O2 | 5.08
Cc1cc(OC(=O)c2c(C)cc(O)cc2O)cc(O)c1C(=O)O | 5.3
Cc1cc(=O)c2c(O)cc(O)c(C)c2o1 | 4.65
CCCCCc1c(C(=O)O)c(O)cc2oc3cc(OC)cc(CCC)c3c12 | 7.09
COC(=O)c1c(C)cc(OC(=O)c2c(C)cc(OC(=O)c3c(C)cc(OC)cc3O)cc2O)cc1O | 7.74
CCCc1cc(O)cc(O)c1 | 3.97
CC1CCC2(C(=O)O)CCC3(C)C(=CCC4C5(C)CCC(O)C(C)(C)C5CCC43C)C2C1C (configuration not stated) | 7.89
O=C1c2cc(O)cc(O)c2C(=O)c2c(O)cc(CO)cc21 | 4.9
COC1=CC(=O)c2c(OC(C)=O)c3c(c(O)c2C1=O)CC(C)OC3=O (configuration not stated) | 6.99
COC(=O)C(Cc1ccccc1)NC(=O)C(=C1OC(=O)C(c2ccccc2)=C1O)c1ccccc1 (configuration not stated) | 7.65
COc1cc(OC)c2c(=O)cc(C)oc2c1C | 4.51
CCCCCC(=O)Cc1cc(O)cc(O)c1C(=O)Oc1cc(CC(=O)CCCCC)c(C(=O)O)c(OC)c1 | 6.03
COC(=O)C(=C1OC(=O)C(c2ccccc2)=C1O)c1ccccc1 | 7.49
COC(=O)c1c(C)cc(O)c(C=O)c1O | 5.48
CC(=O)OCC1OC(Oc2cc3oc(C)cc(=O)c3c(O)c2C)C(OC(C)=O)C(O)C1O (configuration not stated) | 4.69
COC(=O)c1c(C)cc(O)cc1O | 4.63

Structure (SMILES) | LC retention time [min]
CCCCCc1cc(OC)cc(O)c1C(=O)Oc1cc(O)c(C(=O)O)c(CCC)c1 | 7.47
CC(=O)OCC1OC(Oc2cc(O)c3c(=O)cc(C)oc3c2C)C(OC(C)=O)C(OC(C)=O)C1OC(C)=O (configuration not stated) | 5.9
CCCCCCCCCCCCC(C(=O)O)C(C)C(=O)O (configuration not stated) | 7.45
CCCCCc1cc(O)cc(O)c1C(=O)O | 5.24
O=C1c2oc3cc(O)c(O)cc3c2C(=O)c2oc3cc(O)c(O)cc3c21 | 4.52
O=C1C(O)=C(c2ccccc2)C(=O)C(O)=C1c1ccccc1 | 5.71
COc1cc(O)cc(C)c1C(=O)Oc1cc(C)c(C(=O)Oc2cc(C)c(C(=O)O)c(O)c2)c(O)c1 | 6.17
COC1=CC(=O)C(=O)c2cc3oc(C)cc(=O)c3c(OC)c21 | 4.03
CCCCCc1c(Oc2cc(OC)cc3c2C(=O)OC3(O)CCCC)c(O)cc(O)c1C(=O)O (configuration not stated) | 5.81
O=C(O)c1cc(O)c2c(c1)C(=O)c1cc(O)cc(O)c1C2=O | 5.06
COc1cc(O)c2c(c1)C(=O)c1cc(C(=O)O)cc(O)c1C2=O | 5.72
CC(=O)OC(C)CC1CC(OC(C)=O)C(C)C(O)C(C)C(=O)OC(CC(C)OC(C)=O)CC(OC(C)=O)C(C)C(O)C(C)C(=O)O1 (configuration not stated) | 6.35
COc1cc(C)c(C(=O)Oc2cc(C)c(C(=O)O)c(O)c2C)c(OC)c1C | 7.09
COc1cc(C)c(C(=O)Oc2cc(C)c(C(=O)O)c(O)c2C)c(O)c1C(=O)O | 5.79
CCCCCc1cc(O)cc(OC)c1C(=O)Oc1c(O)cc(CCCCC)c(C(=O)O)c1O | 6.54
CCCC(=O)Cc1cc(OC(=O)c2c(O)cc(OC)cc2CC(=O)CCC)cc(O)c1C(=O)O | 6.92
CC(=O)c1c(O)cc(O)cc1O | 3.77
Cc1cc(O)c(C=O)c(O)c1C(=O)OCc1cc(O)c(C=O)c(O)c1C(=O)O | 7.26
